In experiment [1] the target is T1, KRAS G12D (Homo sapiens, UniProt P01116, G12D).
T1 construct: aa1-188 KRAS WT, HRAS WT, NRAS WT, or KRAS containing the G12D
As to the kind of experiment: HTRF nucleotide exchange assay, KRAS G12D. It is filed as biochemical. The note with it: class symbols; for IC50: HTRF nucleotide exchange assay (NEA). How it is done:
(§1) HTRF Nucleotide Exchange Assay Method
(§2) The capacity of compounds to bind KRAS G12D, other KRAS mutants and wildtype RAS isoforms was quantified using a HTRF nucleotide exchange assay. Recombinant human RAS protein (2 nM; aa1-188 KRAS WT, HRAS WT, NRAS WT, or KRAS containing the G12D, G13D or Q61H amino acid substitutions, or 4 nM KRAS; aa1-188 containing the G12V, G12C, G12A or G12S amino acid substitution, an N-terminal 6× His-tag and leader sequence), and 2 nM Europium-labeled anti-6× His antibody were mixed in assay buffer (10 mM HEPES pH 7.3, 150 mM NaCl, 5 mM MgCl2, 0.05% BSA, 0.0025% NP-40 and 100 mM KF) with various concentrations of compound in a 384-well plate and a volume of 5 μL. After a 60-minute incubation at room temperature, 5 μl of 200 nM EDA-GTP-DY647P1 (diluted in assay buffer) was added to the plate. Following 30-minute incubation at room temperature, time-resolved fluorescence was measured on a PerkinElmer Envision plate reader. DMSO (0.3%) and unlabeled GDP (1 μM) or equivalent tool compound were used to generate the Max and Min assay signals, respectively. Data was analysed using a four-parameter logistic model to calculate IC50 values, with at least two independent replicates were performed for each compound. The results are presented as IC50s in Table 29 where “A” corresponds to an IC50 ≤10 nM, “B” to an IC50 >10 nM up to 100 nM, “C” is >100 nM up to 10 μM, “D” represents <49% inhibition at 10 μM and ND=not determined: […]
On the technique in general: Time-resolved FRET reads energy transfer from a long-lived donor to a nearby acceptor.

The target of experiment [2] is T2, KRAS WT (Homo sapiens, UniProt P01116).
T2 construct: aa1-188 KRAS WT
As to the kind of experiment: HTRF nucleotide exchange assay, KRAS WT. Type of experiment: biochemical. To be noted: class symbols; for IC50: HTRF nucleotide exchange assay (NEA). How it is done:
as §1, §2

Here are results for 18 compounds from patent US20260347364A1, “PYRAZOLO[4,3-F]QUINAZOLINE DERIVATIVES AS MODULATORS OF G12D MUTANT KRAS USEFUL FOR THE TREATMENT OF CANCER” (JAZZ PHARMACEUTICALS IRELAND LTD., priority 2023, published 2026).

By IC50 is commonly meant the concentration that inhibits the measured activity by half. Read a high IC50 as a need for much substance.

As for `CCc1c(F)ccc2cc(O)cc(-c3cc4nc(OC[C@@]56CCCN5C[C@H](F)C6)nc(N5CCCCC(C)(O)C5)c4c4cn(C)nc34)c12` (stereo partly drawn) [Example 10, 1-[4-(8-ethyl-7-fluoro-3-hydroxy-1-naphthyl)-2-methyl-7-[[(2R,8S)-2-fluoro-1,2,3,5,6,7-hexahydropyrrolizin-8-yl]methoxy]pyrazolo[4,3-f]quinazolin-9-yl]-3-methyl-azepan-3-ol], the IC50 in experiment [1] and in experiment [2] was at most 10 nM throughout.
Regarding `C#Cc1c(F)ccc2cc(O)cc(-c3cc4nc(OC[C@@]56CCCN5C[C@H](F)C6)nc(N5CCOCC(C)(O)C5)c4c4cn(C)nc34)c12` (stereo partly drawn) [Example 11, 4-[4-(8-ethynyl-7-fluoro-3-hydroxy-1-naphthyl)-2-methyl-7-[[(2R,8S)-2-fluoro-1,2,3,5,6,7-hexahydropyrrolizin-8-yl]methoxy]pyrazolo[4,3-f]quinazolin-9-yl]-6-methyl-1,4-oxazepan-6-ol], the IC50 in experiment [1] and in experiment [2] was at most 10 nM throughout.
As to `CCc1c(F)ccc2cc(O)cc(-c3cc4nc(OC[C@@]56CCCN5C[C@H](F)C6)nc(N5CCNCC5)c4c4cn(C)nc34)c12` [Example 13, 5-ethyl-6-fluoro-4-[2-methyl-9-piperazin-1-yl-7-[[(2R,8S)-2-fluoro-1,2,3,5,6,7-hexahydropyrrolizin-8-yl]methoxy]pyrazolo[4,3-f]quinazolin-4-yl]naphthalen-2-ol], the half-inhibitory concentration (IC50) was 10 to 100 nM in experiment [1] and 100 to 10000 nM in experiment [2].
As to `CCc1c(F)ccc2cc(O)cc(-c3cc4nc(OC[C@@]56CCCN5C[C@H](F)C6)nc(N5CC6CCC(C5)N6)c4c4cn(C)nc34)c12` [Example 15], the IC50 in experiment [1] was at most 10 nM; in experiment [2], 10 to 100 nM.
Regarding `Cc1cc(N)nc(-c2cc3nc(OCC45CCCN4CC(F)C5)nc(N4CCCOCC4)c3c3cn(C)nc23)c1C(F)(F)F` [Example 16, 4-methyl-6-[2-methyl-9-(1,4-oxazepan-4-yl)-7-[(2R,8S)-2-fluoro-1,2,3,5,6,7-hexahydropyrrolizin-8-yl]methoxy]pyrazolo[4,3-f]quinazolin-4-yl]-5-(trifluoromethyl)pyridin-2-amine], the “KRAS^G12D NEA” value in experiment [1] was “D (<49% inhibition at 10 μM)”. For the same compound, the “KRAS^WT NEA” value in experiment [2] was “D (<49% inhibition at 10 μM)”.
In the case of `CCc1c(F)ccc2cc(O)cc(-c3cc4nc(OC[C@@]56CCCN5C[C@H](F)C6)nc(N5CC6C(=O)NC(=O)C6C5)c4c4cn(C)nc34)c12` (stereo partly drawn) [Example 17, 5-[4-(8-ethyl-7-fluoro-3-hydroxy-1-naphthyl)-2-methyl-7-[[(2R,8S)-2-fluoro-1,2,3,5,6,7-hexahydropyrrolizin-8-yl]methoxy]pyrazolo[4,3-f]quinazolin-9-yl]-3a,4,6,6a-tetrahydropyrrolo[3,4-c]pyrrole-1,3-dione], the IC50 in experiment [1] and in experiment [2] was at most 10 nM each time.
On to `CCc1c(F)ccc2cc(O)cc(-c3cc4nc(OCC5CCCN5C)nc(N5CCCOCC5)c4c4cn(C)nc34)c12` (stereo not drawn) [Example 18, 5-ethyl-6-fluoro-4-[2-methyl-7-[(1-methylpyrrolidin-2-yl)methoxy]-9-(1,4-oxazepan-4-yl)pyrazolo[4,3-f]quinazolin-4-yl]naphthalen-2-ol], for which the IC50 in experiment [1] and in experiment [2] was 10 to 100 nM throughout.
With `CCc1c(F)ccc2cc(O)cc(-c3cc4nc(OCC5CCCCN5C)nc(N5CCCOCC5)c4c4cn(C)nc34)c12` (stereo not drawn) [Example 19, 5-ethyl-6-fluoro-4-[2-methyl-7-[(1-methyl-2-piperidyl)methoxy]-(1,4-oxazepan-4-yl)pyrazolo[4,3-f]quinazolin-4-yl]naphthalen-2-ol], the IC50 in experiment [1] and in experiment [2] was 100 to 10000 nM each time.
Take `CCc1c(F)ccc2cc(O)cc(-c3cc4nc(OC[C@@]56CCCN5C[C@H](F)C6)nc(N5CCCNCC5)c4c4cn(C)nc34)c12` [Example 20, 4-[9-(1,4-diazepan-1-yl)-2-methyl-7-[[(2R,8S)-2-fluoro-1,2,3,5,6,7-hexahydropyrrolizin-8-yl]methoxy]pyrazolo[4,3-f]quinazolin-4-yl]-5-ethyl-6-fluoro-naphthalen-2-ol]: the IC50 was at most 10 nM in experiment [1] and 10 to 100 nM in experiment [2].
For `CCNC(=O)c1cc2n(n1)CCCN(c1nc(OC[C@@]34CCCN3C[C@H](F)C4)nc3cc(-c4cc(O)cc5ccc(F)c(CC)c45)c4nn(C)cc4c13)C2` [Example 21, N-ethyl-5-[4-(8-ethyl-7-fluoro-3-hydroxy-1-naphthyl)-2-methyl-7-[[(2R,8S)-2-fluoro-1,2,3,5,6,7-hexahydropyrrolizin-8-yl]methoxy]pyrazolo[4,3-f]quinazolin-9-yl]-4,6,7,8-tetrahydropyrazolo[1,5-a][1,4]diazepine-2-carboxamide], in that order: at most 10 nM and at most 10 nM.
For `CCc1c(F)ccc2cc(O)cc(-c3cc4nc(OC[C@@]56CCCN5C[C@H](F)C6)nc(N5CCCn6nc(C(=O)N(C)C)cc6C5)c4c4cn(C)nc34)c12` [Example 22, 5-[4-(8-ethyl-7-fluoro-3-hydroxy-1-naphthyl)-2-methyl-7-[[(2R,8S)-2-fluoro-1,2,3,5,6,7-hexahydropyrrolizin-8-yl]methoxy]pyrazolo[4,3-f]quinazolin-9-yl]-N,N-dimethyl-4,6,7,8-tetrahydropyrazolo[1,5-a][1,4-]diazepine-2-carboxamide], in that order: at most 10 nM and at most 10 nM.
Regarding `CCc1c(F)ccc2cc(O)cc(-c3cc4nc(OC[C@@]56CCCN5C[C@H](F)C6)nc(N5CCCn6nc(C(=O)N7CCCC7)cc6C5)c4c4cn(C)nc34)c12` [Example 23, [5-[4-(8-ethyl-7-fluoro-3-hydroxy-1-naphthyl)-2-methyl-7-[[(2R,8S)-2-fluoro-1,2,3,5,6,7-hexahydropyrrolizin-8-yl]methoxy]pyrazolo-[4,3-f]quinazolin-9-yl]4,6,7,8-tetrahydropyrazolo[1,5-a][1,4]diazepin-2-yl]-pyrrolidin-1-yl-methanone], the IC50 in experiment [1] and in experiment [2] was at most 10 nM in each case.
In the case of `CCc1c(F)ccc2cc(O)cc(-c3cc4nc(OC[C@@]56CCCN5C[C@H](F)C6)nc(N5CCCn6nc(C(=O)N7CCOCC7)cc6C5)c4c4cn(C)nc34)c12` [Example 24, [5-[4-(8-ethyl-7-fluoro-3-hydroxy-1-naphthyl)-2-methyl-7-[[(2R,8S)-2-fluoro-1,2,3,5,6,7-hexahydropyrrolizin-8-yl]methoxy]pyrazolo[4,3-f]quinazolin-9-yl]-4,6,7,8-tetrahydropyrazolo[1,5-a][1,4]diazepin-2-yl]-morpholino-methanone], the IC50 in experiment [1] and in experiment [2] was at most 10 nM in each case.
In the case of `CCc1c(F)ccc2cc(O)cc(-c3cc4nc(OC[C@@]56CCCN5C[C@H](F)C6)nc(N5CC6CNCC6C5)c4c4cn(C)nc34)c12` (stereo partly drawn) [Example 25, 4-(2,7-diazaspiro[4.4]nonan-2-yl)-6-(8-ethyl-7-fluoro-3-hydroxy-1-naphthyl)-2-[[(2R,8S)-2-fluoro-1,2,3,5,6,7-hexahydropyrrolizin-8-yl]methoxy]-7H-pyrrolo[3,4-d]pyrimidin-5-one], the IC50 in experiment [1] is at most 10 nM; in experiment [2] it was 100 to 10000 nM.
For `CCc1c(F)ccc2cc(O)cc(-c3cc4nc(OCC56CCCN5CCC6)nc(N5CCOCC(C)(O)C5)c4c4cn(C)nc34)c12` (stereo not drawn) [Example 26, 4-[4-(8-ethyl-7-fluoro-3-hydroxy-1-naphthyl)-7-(1,2,3,5,6,7-hexahydropyrrolizin-8-ylmethoxy)-2-methyl-pyrazolo[4,3-f]quinazolin-9-yl]-6-methyl-1,4-oxazepan-6-ol], the IC50 in experiment [1] and in experiment [2] was at most 10 nM throughout.
Turning to `CCc1c(F)ccc2cc(O)cc(-c3cc4nc(OCC56CCCN5CCC6)nc(N5CCCC(C)(O)CC5)c4c4cn(C)nc34)c12` (stereo not drawn) [Example 27, 1-[4-(8-ethyl-7-fluoro-3-hydroxy-1-naphthyl)-7-(1,2,3,5,6,7-hexahydropyrrolizin-8-ylmethoxy)-2-methyl-pyrazolo[4,3-f]quinazolin-9-yl]-4-methyl-azepan-4-ol], the IC50 in experiment [1] and in experiment [2] was 100 to 10000 nM each time.
For the compound `CCc1c(F)ccc2cc(O)cc(-c3cc4nc(OCC56CCCN5CCC6)nc(N5CCCC(C)(O)C5)c4c4cn(C)nc34)c12` (stereo not drawn) [Example 28, 1-[4-(8-ethyl-7-fluoro-3-hydroxy-1-naphthyl)-7-(1,2,3,5,6,7-hexahydropyrrolizin-8-ylmethoxy)-2-methyl-pyrazolo[4,3-f]quinazolin-9-yl]-3-methyl-piperidin-3-ol], the IC50 in experiment [1] and in experiment [2] was at most 10 nM throughout.
For `CCc1c(F)ccc2cc(O)cc(-c3cc4nc(OC[C@@]56CCCN5C[C@H](F)C6)nc(N5CCCC(C)(O)CC5)c4c4cn(C)nc34)c12` (stereo partly drawn) [Example 29, 1-[4-(8-ethyl-7-fluoro-3-hydroxy-1-naphthyl)-7-[[(2R,8S)-2-fluoro-1,2,3,5,6,7-hexahydropyrrolizin-8-yl]methoxy]-2-methyl-pyrazolo[4,3-f]quinazolin-9-yl]-4-methyl-azepan-4-ol], in experiment [1], the “KRAS^G12D NEA” value is listed as “D (<49% inhibition at 10 μM)”. Besides, in experiment [2], the IC50 lay within 100 to 10000 nM.
